Laboratory results published in patent US4428942A, “Analogs of somatostatin” (The Salk Institute for Biological Studies, priority 1982, dated 1984).

Tests used:
isolated rabbit ileum = conditions: isolated rabbit ileum, Ussing chamber, chloride fluxes; SS-14 = 100
Method: The analogs are tested in vitro in isolated rabbit ileum using the modified Ussing chamber technique, as described in Amer. J. of Physiol., 225:776-780 (1973). Unidirectional chloride fluxes are determined and used to characterize bi-directional fluxes following the addition of an SS-analog. Changes are measured with varying concentrations, and the potency to inhibit ion transport is quantitated and expressed as a percentage of the potency of SS-14.

secretion of insulin = conditions: in vivo, arginine-stimulated, rats; SS-14 = 100
Method: (§1) In vivo experiments are carried out with the analogs, using the procedure described in Brown et al., Metabolism (1976) Vol. 25, pp. 1501-1503, to determine the potency, relative to somatostatin-14, to inhibit the secretion of glucagon and insulin stimulated by the administration of arginine to groups of six rats.

secretion of glucagon = tested on: secretion of glucagon; design: species or system rats; conditions: in vivo, arginine-stimulated, rats; SS-14 = 100
Method: as §1

[1] = tested on: release of growth hormone induced by isobutyl methyl xanthine in pituitary cells; type: cell-based, rat; conditions: cultured rat pituitary cells, isobutyl methyl xanthine-induced release; SS-14 = 100
Method: To determine the effectiveness of the peptides to inhibit the release of growth hormone, in vitro radioimmunoassays are carried out using the SS analogs in side-by-side comparison with equimolar concentrations of somatostatin-14 having a known effectiveness to inhibit the release of growth hormone induced by the application of isobutyl methyl xanthine to pituitary cells. Cultures are used which include cells of rat pituitary glands removed some four to five days previously in a system that minimizes enzymatic degradation, generally following the procedure set forth in Vale et al., Methods in Enzymology, Hormones and Cyclic Nucleotides (1975) Vol. 37, p. 82. Both cultures of a defined standard medium and cultures which are considered optimal for the secretion of growth hormone, as a result of having additions of either 2% or 10% of serum from a foetal calf, are used for the comparative testing.

Structure (SMILES) | Ion Transport (potency to inhibit ion transport expressed as a percentage of the potency of SS-14) (isolated rabbit ileum) [%] | Insulin (potency to inhibit insulin secretion relative to SS-14) (secretion of insulin) [%] | Glucagon (potency to inhibit glucagon secretion relative to SS-14) (secretion of glucagon) [%] | GH (potency for the inhibition of GH release relative to SS-14) [1] [%]
C[C@H](N)C(=O)NCC(=O)N[C@H]1CSSC[C@@H](C(=O)O)NC(=O)[C@H](CO)NC(=O)[C@H]([C@@H](C)O)NC(=O)[C@H](Cc2ccccc2)NC(=O)[C@H]([C@@H](C)O)NC(=O)[C@H](CCCCN)NC(=O)[C@H](Cc2c[nH]c3ccccc23)NC(=O)[C@H](Cc2ccccc2)NC(=O)[C@@H](Cc2ccccc2)NC(=O)[C@H](CC(N)=O)NC(=O)[C@H](CCCCN)NC1=O [Peptide 16, [D-Phe^6]--SS] | 10 | < 1 | < 1 | 5
C[C@H](N)C(=O)NCC(=O)N[C@H]1CSSC[C@H](C(=O)O)NC(=O)[C@H](CO)NC(=O)[C@H]([C@@H](C)O)NC(=O)[C@H](Cc2ccccc2)NC(=O)[C@H]([C@@H](C)O)NC(=O)[C@H](CCCCN)NC(=O)[C@H](Cc2c[nH]c3ccccc23)NC(=O)[C@H](Cc2ccccc2)NC(=O)[C@H](Cc2ccccc2)NC(=O)[C@H](CC(N)=O)NC(=O)[C@H](CCCCN)NC1=O [Peptide 17, [D-Cys^14]--SS] | 336 | 20 | 310 | 270
C[C@H](N)C(=O)NCC(=O)N[C@H]1CSSC[C@@H](C(=O)O)NC(=O)[C@H](CO)NC(=O)[C@H]([C@@H](C)O)NC(=O)[C@H](Cc2ccccc2)NC(=O)[C@H]([C@@H](C)O)NC(=O)[C@H](CCCCN)NC(=O)[C@H](Cc2c[nH]c3ccccc23)NC(=O)[C@H](Cc2ccccc2)NC(=O)[C@H](Cc2ccccc2)NC(=O)[C@H](CC(N)=O)NC(=O)[C@H](CCCCN)NC1=O [SS-14, somatostatin] | 100 | 100 | 100 | 100
